The text below walks through data of PubChem BioAssay (NCI).

Assay in all cases: NCI-60 cell line screen, 48 h
Assay [1] has as its system TK-10 renal.
The subject of assay [2] is SN12C renal.
In assay [3] the test system is RXF 393 renal.
Assay [4] concerns MOLT-4 leukemia.
Assay [5] concerns CAKI-1 renal.
Assay [6] concerns M14 melanoma.
Assay [7] deals with T-47D breast.
The test system of assay [8] is SK-MEL-28 melanoma.

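Compound exposure: 48 hours, 5 concentrations, 96-well plates. GI50: concentration for 50% inhibition of growth. TGI marks complete inhibition of growth.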 Where a SMILES comes first, the peptide text is derived from it. [ ]: non-standard residue; d: D form. ξ: configuration not given here. Pentanoyl(2-O,4-OH,5-Cl) = O=C(O)C(O)CC(O)CCl; Ile(3ξ) = CCC(C)[C@H](N)C(=O)O; NMeV = CN[C@H](C(=O)O)C(C)C; NMeA = CN[C@@H](C)C(=O)O; βAla = NCCC(=O)O

For `CCN(CC)CCN1C(=O)C2C3C(C)=CC(OC(C)=O)(CC3C)C2C1=O` (configuration not stated), the GI50 in assay [1], in assay [2], in assay [3], in assay [4], in assay [5] and in assay [6] was over 100 µM throughout. The GI50 in assay [7] was over 100 µM. For the same compound, the TGI in assay [1], in assay [2], in assay [3], in assay [4], in assay [5] and in assay [6] was over 100 µM throughout. This compound returned a TGI in assay [7] of over 100 µM.
As for `CCC(C)[C@@H]1NC(=O)[C@@H]2CCCN2C(=O)C(CC(O)CCl)OC(=O)CCNC(=O)[C@H](C)N(C)C(=O)[C@H](C(C)C)N(C)C1=O` (some centres not stated) (cyclo([Ile(3ξ)][NMeV][NMeA][βAla][Pentanoyl(2-O,4-OH,5-Cl)]P)), the TGI in assay [1] is over 100 µM; in assay [2] it was over 100 µM; in assay [3] it was over 100 µM; in assay [4] it was over 100 µM; in assay [5], over 100 µM; in assay [6], 3.09 µM. Further, the TGI in assay [7] and in assay [8] was over 100 µM each time.
As to `[Cu].c1ccc2c(c1)C1=NC2=NC2=NC(=NC3=NC(=NC4=NC(=N1)c1ccccc14)c1ccccc13)c1ccccc12`, the GI50 in assay [1], in assay [2], in assay [3], in assay [5], in assay [6] and in assay [7] was over 100 µM each time. In assay [8], the GI50 was over 100 µM. In addition, the TGI in assay [1], in assay [2], in assay [3], in assay [5], in assay [6] and in assay [7] was over 100 µM in each case. In assay [8], this compound came in with a TGI of over 100 µM.
For the compound `C/C(=C1\C(=O)Nc2ccccc21)c1cccc(/C(C)=C2/C(=O)Nc3ccccc32)n1`, the GI50 in assay [2] is 15.6 µM; in assay [3], 12.3 µM; in assay [4], 6.95 µM; in assay [5], 2.34 µM; in assay [6], 6.84 µM; in assay [7], 4.63 µM. In addition, the GI50 in assay [8] was 31.5 µM. Besides, the TGI was 54.7 µM in assay [2]; 58.7 µM in assay [3]; over 100 µM in assay [4]; 24.3 µM in assay [5]; over 100 µM in assay [6]; over 100 µM in assay [7]. This compound also yielded a TGI in assay [8] of over 100 µM.
As to `Clc1ccc2c(NC3CCC(NC4CCCCC4)CC3)ccnc2c1` (configuration not stated), the GI50 in assay [1] is 2.13 µM; in assay [2] it was 14.7 µM; in assay [3] it was 3.61 µM; in assay [5], 1.81 µM; in assay [6], 1.72 µM; in assay [7], 3.42 µM. In addition, the GI50 in assay [8] is 1.79 µM. For the same compound, the TGI in assay [1] was found to be 7.11 µM; in assay [2], 68.3 µM; in assay [3] it was 16.6 µM; in assay [5] it was 6.63 µM; in assay [6] it was 3.19 µM; in assay [7] it was 17.7 µM. The compound also had a TGI in assay [8] of 3.3 µM.
In the case of `C=CCn1c(SCC(=O)Nc2ccc(C(=O)/C=C/c3cc(OC)c(OC)c(OC)c3)cc2)nnc1-c1cc(OC)c(OC)c(OC)c1`, the GI50 in assay [1] was 23.3 µM; in assay [2], 4.74 µM; in assay [3], 2.16 µM; in assay [4], 4.22 µM; in assay [6] it was 2.96 µM; in assay [7] it was 5.44 µM. Besides, in assay [8], the GI50 was 3.29 µM. The TGI was 58.8 µM in assay [1]; over 100 µM in assay [2]; 4.65 µM in assay [3]; over 100 µM in assay [4]; 11.8 µM in assay [6]; 40.7 µM in assay [7]. This compound also came in with a TGI in assay [8] of 32.3 µM.
Turning to `O=C(O)C1CCCN1` (configuration not stated), the TGI in assay [1], in assay [2], in assay [3], in assay [4], in assay [6] and in assay [7] was over 100 µM throughout. In addition, the TGI in assay [8] is over 100 µM.
`CCN(Cc1ccccc1)c1ccc(/C=C2\COc3ccccc3C2=O)cc1`: the GI50 in assay [1] is over 1000 µM; in assay [2], over 1000 µM; in assay [3] it was 758 µM; in assay [4] it was 105 µM; in assay [6], 330 µM; in assay [7] it was 213 µM. The GI50 in assay [8] was over 1000 µM. Moreover, the TGI in assay [1], in assay [2], in assay [3], in assay [4], in assay [6] and in assay [7] was over 1000 µM throughout. The compound further registered a TGI in assay [8] of over 1000 µM.
Take `COc1cc(-c2csc(NC(=O)Nc3ccc(Cl)cc3)n2)cc(OC)c1OC`: the GI50 is 3.25 µM in assay [1]; 3.18 µM in assay [2]; 3.91 µM in assay [3]; 2.91 µM in assay [5]; 2.27 µM in assay [6]; 1.91 µM in assay [7]. The GI50 in assay [8] was 2.44 µM. Further, the TGI in assay [1] is 14.9 µM; in assay [2], 13.7 µM; in assay [3] it was 13.9 µM; in assay [5], 11.1 µM; in assay [6], 5.92 µM; in assay [7], 6.29 µM. The TGI in assay [8] is 7.12 µM.
For the compound `COc1ccc2c(c1)c(-c1ccc(-c3cn(C)c4ccc(OC)cc34)s1)cn2C`, the GI50 in assay [1], in assay [2], in assay [3], in assay [4], in assay [5] and in assay [6] was over 100 µM throughout. In assay [8], the GI50 is over 100 µM. Besides, the TGI in assay [1], in assay [2], in assay [3], in assay [4], in assay [5] and in assay [6] was over 100 µM throughout. Moreover, the TGI in assay [8] is over 100 µM.
